Read-outs that look alike come from different tables or passages of the source.
How the values were obtained:
[1] = biological target: T1, histamine H3 receptor (Rattus norvegicus, UniProt Q9QYN8); test: N^α-methylhistamine binding inhibition test ([3H]N^α-methylhistamine, rat fore-brain membrane fraction)
T1 construct: Rat fore-brain was homogenized in 10 volumes of 0.32 M sucrose solution; from tissue; host or cells: rat fore-brain membrane fraction
From the text: The PF1270A, B and C substances obtained by the invention have affinity for histamine H3 receptor. Affinity of the PF1270A, B and C substances for histamine H3 receptor was examined by a binding inhibition test of a histamine H3 receptor ligand, N^α-methylhistamine.
Test Example N^α-methylhistamine Binding Inhibition Activity
Rat fore-brain was homogenized in 10 volumes of 0.32 M sucrose solution using a Teflon-glass homogenizer, and the thus obtained homogenate was centrifuged at 1000×g for 10 minutes. The supernatant was centrifuged at 39000×g for 20 minutes to obtain the precipitate. This precipitate was washed with an assay buffer (50 mM Tris (pH 7.4), 5 mM EDTA) by centrifugation. This operation was further carried out twice, and the finally obtained membrane fraction was used as the histamine H3 receptor membrane fraction.
The binding inhibition test was carried out using the thus obtained membrane fraction and a radioactive ligand [^3H]N^α-methylhistamine (manufactured by Perkin-Elmer Life Science). In the presence of PF1270A, B or C substance, the membrane fraction (55 μg as protein) and 1 nM in final concentration of [^3H]N^α-methylhistamine were added to 150 μl of the assay buffer and incubated at room temperature for 60 minutes. This was filtered using a unifilter GF/B filter (manufactured by Perkin-Elmer) coated with 0.3% polyethyleneimine and washed three times with 200 μl of the assay buffer. After drying at 50° C. for 1 hour, 30 μl of Microscinti-20 (manufactured by Perkin-Elmer) was added thereto as the scintillator, and the radioactivity was counted using Top Count (manufactured by Perkin-Elmer). The nonspecific binding was determined by adding a large excess of thioperamide (10 μM in final concentration). The binding inhibition ratio of N^α-methylhistamine in the presence of PF1270A, B or C substance was calculated based on the following formula. […]

[2] = Solubility (physicochemical properties)
[3] = rat fore-brain histamine H3 receptor membrane fraction, 1 nM [3H]N^α-methylhistamine, room temperature 60 minutes, read-out: N^α-methylhistamine binding inhibition activity, IC50 (converted)

T1 sequence (Q9QYN8 whole entry): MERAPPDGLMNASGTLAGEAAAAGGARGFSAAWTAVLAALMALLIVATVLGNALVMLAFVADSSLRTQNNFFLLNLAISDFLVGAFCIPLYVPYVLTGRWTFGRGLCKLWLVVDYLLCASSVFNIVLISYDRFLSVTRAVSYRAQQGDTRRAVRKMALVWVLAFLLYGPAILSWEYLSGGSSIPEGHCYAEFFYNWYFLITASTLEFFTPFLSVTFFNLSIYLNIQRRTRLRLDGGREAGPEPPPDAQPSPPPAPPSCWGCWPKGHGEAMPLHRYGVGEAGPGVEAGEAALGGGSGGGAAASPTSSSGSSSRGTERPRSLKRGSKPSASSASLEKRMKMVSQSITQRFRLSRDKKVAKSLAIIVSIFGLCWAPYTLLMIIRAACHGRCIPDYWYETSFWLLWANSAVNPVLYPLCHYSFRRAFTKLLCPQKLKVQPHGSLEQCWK

SMILES | IC50 [1, 3] | Solubility in chloroform and methanol [2] | Solubility in water [2] | IC50 [1]
CCC(=O)OC1CC(C)N2CC3(NC)CC4(C(=O)Nc5c(C(=O)C6OC6(C)C)cccc54)C(C)(C=O)C3CC2C1 (stereo not drawn) [PF1270B] | 399 nM | soluble | hardly soluble | –
CNC12CN3C(C)CC(OC(C)=O)CC3CC1C(C)(C=O)C1(C2)C(=O)Nc2c(C(=O)C3OC3(C)C)cccc21 (stereo not drawn) [PF1270C] | 763 nM | soluble | hardly soluble | –
CCCC(=O)OC1CC(C)N2CC3(NC)CC4(C(=O)Nc5c(C(=O)C6OC6(C)C)cccc54)C(C)(C=O)C3CC2C1 (stereo not drawn) [PF1270A] | – | soluble | hardly soluble | 83.1 nM

Reference: US7501431B2, “Physiologically active substances PF1270A, B and C substances” (Meui Seika Kaisha, Ltd., priority 2003, dated 2009)
